For three compounds, Activity results are on record in ChEMBL document CHEMBL1146394, “New antihepatotoxic cerebroside from Lycium chinense fruits” (1997).

The subject of experiment [1] is Hepatocyte. Kind of experiment: Antihepatotoxic activity against CCl4-induced cytotoxicity in rat hepatocytes assessed as blockade of sorbitol dehydrogenase release at 25 uM by modified Gerlach method relative to control. It is filed as functional.
Experiment [2] concerns Hepatocyte. The experiment in a line: Antihepatotoxic activity against CCl4-induced cytotoxicity in rat hepatocytes assessed as blockade of glutamic pyruvic transaminase release at 25 uM by Reitman-Frankel method relative to control. In kind it is functional.

With `CCCCCCCCC/C=C\CC/C=C/[C@@H](O)[C@H](CO[C@@H]1O[C@H](CO)[C@@H](O)[C@H](O)[C@H]1O)NC(=O)C(O)CCCCCCCCCCCCCC` (stereo partly specified), the Activity with Hepatocyte [1] was 69.5%; in the experiment on Hepatocyte [2], 86.4%.
On the same counts, the results for `CCCCCCCCC/C=C\CC/C=C/[C@@H](O)[C@H](CO[C@@H]1O[C@H](CO)[C@@H](O)[C@H](O)[C@H]1O)NC(=O)CCCCCCCCCCCCCCC` are 80.2% and 95.6%.
On to `COc1cc(C2Oc3cc([C@H]4Oc5cc(O)cc(O)c5C(=O)[C@@H]4O)ccc3OC2CO)ccc1O` (stereo partly specified) [SILIBININ], for which the Activity in the experiment with Hepatocyte [1] is listed as 58.9%; in the experiment with Hepatocyte [2], 76%.
